Where two headings read alike, the source gives them in different places. Starred links: 1 amine or outer side, 2 acyl side, 3 side chain; linkers in the order of their positions; H or OH if unused. Non-standard residues stand in square brackets, D forms with d. Groups on a side chain read outwards from the residue. *: point of attachment. C20 diacid = O=C(O)CCCCCCCCCCCCCCCCCCC(=O)*; C18 diacid = O=C(O)CCCCCCCCCCCCCCCCC(=O)*; γGlu = O=C(O)[C@H](CCC(=O)[*:2])N[*:1]; εLys = N[C@@H](CCCCN[*:1])C(=O)[*:2]; Tle = CC(C)(C)[C@H](N)C(=O)O; AEEA = NCCOCCOCC(=O)O; Aib = CC(C)(N)C(=O)O
What was measured:
Type in all cases: cell-based
Settings in all cases: CreLuc reporter gene assay
hGLP1R = molecular target: T1, hGLP1R (Homo sapiens, UniProt P43220); test: hGLP1R CreLuc reporter gene assay in 0.5% and 100% plasma
T1 construct: expressed in transfected cells; host or cells: HEK-293 cells carrying a CRE-luciferase reporter gene
How it was run: (§1)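 Agonist EC50s came from 8-concentration curves over four decades, fitted by non-linear variable-slope regression of CRE-driven luciferase luminescence. Cells were exposed 4 h at 37 °C, in buffer with 0.5% human plasma or in 100% plasma; GIPR was expressed in CHO cells, GLP-1R and NPY2R in HEK cells.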

hGIPR = molecular target: T2, hGIPR (Homo sapiens, UniProt P48546); test: hGIPR CreLuc reporter gene assay in 0.5% and 100% plasma
T2 construct: expressed in transfected cells; host or cells: CHO cells carrying a CRE-luciferase reporter gene
T2 sequence (P48546 22-466): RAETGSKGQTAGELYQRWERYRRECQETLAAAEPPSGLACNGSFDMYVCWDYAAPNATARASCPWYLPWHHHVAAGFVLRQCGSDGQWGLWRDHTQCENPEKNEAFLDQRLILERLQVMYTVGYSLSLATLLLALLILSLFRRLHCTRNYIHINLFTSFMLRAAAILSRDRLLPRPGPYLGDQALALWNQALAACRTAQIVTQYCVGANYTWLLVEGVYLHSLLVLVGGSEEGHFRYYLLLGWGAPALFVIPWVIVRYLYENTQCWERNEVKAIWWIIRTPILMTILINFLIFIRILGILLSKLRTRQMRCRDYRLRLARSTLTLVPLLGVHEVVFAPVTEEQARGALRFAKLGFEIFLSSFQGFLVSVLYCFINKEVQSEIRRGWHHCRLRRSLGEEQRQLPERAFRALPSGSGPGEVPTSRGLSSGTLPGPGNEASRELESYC
How it was run: as §1

hNPY2R = molecular target: T3, hNPY2R (Homo sapiens, UniProt P49146); test: hNPY2R CreLuc reporter gene assay in 0.5% and 100% plasma
T3 construct: expressed in transfected cells; host or cells: HEK-293 cells carrying a CRE-luciferase reporter gene
T3 sequence (P49146 1-381): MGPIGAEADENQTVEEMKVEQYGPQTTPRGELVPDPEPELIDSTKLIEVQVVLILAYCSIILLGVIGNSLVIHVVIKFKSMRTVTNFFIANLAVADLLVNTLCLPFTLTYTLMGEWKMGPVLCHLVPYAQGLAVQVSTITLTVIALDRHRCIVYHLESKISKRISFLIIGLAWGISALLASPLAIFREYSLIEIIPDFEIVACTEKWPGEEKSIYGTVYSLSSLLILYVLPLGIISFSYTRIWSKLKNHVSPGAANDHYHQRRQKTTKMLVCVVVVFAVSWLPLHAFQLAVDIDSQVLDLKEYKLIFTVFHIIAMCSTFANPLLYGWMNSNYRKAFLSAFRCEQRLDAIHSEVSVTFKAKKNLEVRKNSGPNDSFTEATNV
How it was run: as §1

[1] = 0.5% human plasma, read-out: hGLP1R 0.5% hP
[2] = 100% human plasma, read-out: hGLP1R 100% hP
[3] = 0.5% human plasma, read-out: hGIPR 0.5% hP
[4] = 0.5% human plasma, read-out: hNPY2R 0.5% hP
[5] = 100% human plasma, read-out: hNPY2R 100% hP
[6] = 100% human plasma, read-out: hGIPR 100% hP

T1 sequence (P43220 24-463): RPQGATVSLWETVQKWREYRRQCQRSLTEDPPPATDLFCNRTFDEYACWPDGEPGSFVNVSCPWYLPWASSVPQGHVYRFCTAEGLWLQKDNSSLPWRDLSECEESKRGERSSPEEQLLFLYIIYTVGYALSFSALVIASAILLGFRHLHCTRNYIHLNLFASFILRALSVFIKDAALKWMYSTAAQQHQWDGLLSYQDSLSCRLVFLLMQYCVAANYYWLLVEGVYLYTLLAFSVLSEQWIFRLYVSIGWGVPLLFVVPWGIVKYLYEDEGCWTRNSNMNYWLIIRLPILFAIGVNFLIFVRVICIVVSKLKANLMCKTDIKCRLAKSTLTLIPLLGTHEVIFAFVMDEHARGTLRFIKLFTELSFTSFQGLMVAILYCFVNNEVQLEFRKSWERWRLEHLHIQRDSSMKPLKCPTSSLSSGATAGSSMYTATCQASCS

CC[C@H](C)[C@H](NC(=O)[C@H](CC(C)C)NC(=O)[C@H](Cc1c[nH]c2ccccc12)NC(=O)[C@H](CCC(N)=O)NC(=O)[C@@H](NC(=O)[C@H](Cc1ccccc1)NC(=O)[C@H](C)NC(=O)C(C)(C)NC(=O)[C@H](CCC(N)=O)NC(=O)[C@H](C)NC(=O)[C@H](CCC(N)=O)NC(=O)[C@H](CCCCN)NC(=O)[C@H](CCC(=O)O)NC(=O)[C@H](CC(C)C)NC(=O)C(C)(C)NC(=O)[C@@H](NC(=O)[C@H](CO)NC(=O)[C@H](Cc1ccc(O)cc1)NC(=O)[C@H](CC(=O)O)NC(=O)[C@H](CO)NC(=O)[C@@H](NC(=O)[C@H](Cc1ccccc1)NC(=O)[C@@H](NC(=O)CNC(=O)[C@H](CCC(=O)O)NC(=O)C(C)(C)NC(=O)[C@@H](N)Cc1ccc(O)cc1)[C@@H](C)O)[C@@H](C)O)[C@@H](C)CC)C(C)C)C(=O)N[C@@H](CCCCNC(=O)[C@H](CCC(=O)O)NC(=O)[C@H](CCC(=O)O)NC(=O)[C@H](CCC(=O)O)NC(=O)[C@H](CCC(=O)O)NC(=O)[C@H](CCC(=O)O)NC(=O)CCCCCCCCCCCCCCCCC(=O)O)C(=O)NCC(=O)NCC(=O)N1CCC[C@H]1C(=O)N[C@@H](CO)C(=O)N[C@@H](CCC(=O)O)C(=O)NCC(=O)N[C@@H](C)C(=O)N[C@@H](CO)C(=O)N[C@@H](CC(C)C)C(=O)N[C@@H](CCCNC(=N)N)C(=O)N[C@@H](Cc1c[nH]cn1)C(=O)N[C@@H](Cc1ccc(O)cc1)C(=O)N[C@@H](Cc1ccc(O)cc1)C(=O)N[C@@H](CC(N)=O)C(=O)N[C@@H](Cc1c[nH]c2ccccc12)C(=O)N[C@@H](CC(C)C)C(=O)N[C@H](C(=O)N[C@@H](CCCNC(=N)N)C(=O)N[C@@H](CCC(N)=O)C(=O)N[C@@H](CCCNC(=N)N)C(=O)N[C@@H](Cc1ccc(O)cc1)C(N)=O)[C@@H](C)O [Compound 257, Y-Aib-E-G-T-F-T-S-D-Y-S-I-Aib-L-E-K-Q-A-Q-Aib-A-F-V-Q-W-L-I-K(1,3)-GGPSEGASLRHYYNWLTRQRY-NH2.C18DA-E-E-E-E-E(1,2)]
EC50 (hGLP1R; [1]): 0.08 nM
EC50 (hGLP1R; [2]): 2.48 nM
EC50 (hGIPR; [3]): 0.14 nM
EC50 (hNPY2R; [4]): 16.9 nM

H-Y[Aib]EGTFTSDYSI[Aib]LEKQAQ[Aib]AFVEWLIK([AEEA-AEEA-γGlu-γGlu-γGlu-γGlu-C20 diacid])GGPSEGASLRHYYNWLTRQRY-NH2 [Compound 287, Y-Aib-E-G-T-F-T-S-D-Y-S-I-Aib-L-E-K-Q-A-Q-Aib-A-F-V-E-W-L-I-K(1,3)-GGPSEGASLRHYYNWLTRQRY-NH2.C20DA-gGlu-gGlu-gGlu-gGlu-OEG-OEG(1,2)]
EC50 (hGLP1R; [1]): 0.27 nM
EC50 (hGIPR; [3]): 0.34 nM
EC50 (hNPY2R; [4]): 13.3 nM
EC50 (hNPY2R; [5]): 45.9 nM

H-Y[Aib]EGTFTSDYSI[Aib]LESQAQ[Aib]AFVEWLIK([εLys-γGlu-γGlu-γGlu-γGlu-γGlu-γGlu-C20 diacid])GGPSSGASLRHYYNWLTRQRY-NH2 [Compound 121, Y-Aib-E-G-T-F-T-S-D-Y-S-I-Aib-L-E-S-Q-A-Q-Aib-A-F-V-E-W-L-I-K(1,3)-GGPSSGASLRHYYNWLTRQRY-NH2.C20DA-gGlu-gGlu-gGlu-gGlu-gGlu-gGlu-eLys(1,2)]
EC50 (hGLP1R; [1]): 0.18 nM
EC50 (hGIPR; [3]): 0.65 nM
EC50 (hNPY2R; [4]): 23.8 nM

H-Y[Aib]EGTFTSDYSI[Aib]LEKQAQ[Aib]EFVQWLIK([γGlu-γGlu-γGlu-γGlu-γGlu-C18 diacid])GGPSEGASLRHYYNWLTRQRY-NH2 [Compound 141, Y-Aib-E-G-T-F-T-S-D-Y-S-I-Aib-L-E-K-Q-A-Q-Aib-E-F-V-Q-W-L-I-K(1,3)-GGPSEGASLRHYYNWLTRQRY-NH2.C18DA-gGlu-gGlu-gGlu-gGlu-gGlu(1,2)]
EC50 (hGLP1R; [1]): 0.25 nM
EC50 (hGIPR; [3]): 0.4 nM
EC50 (hNPY2R; [4]): 11.8 nM
EC50 (hNPY2R; [5]): 35.3 nM

H-Y[Aib]EGTFTSDYSI[Aib]LEKQAQ[Aib]EFVQWLIK([γGlu-γGlu-γGlu-γGlu-C20 diacid])GGPSEGASLRHYYNWLTRQRY-NH2 [Compound 194, Y-Aib-E-G-T-F-T-S-D-Y-S-I-Aib-L-E-K-Q-A-Q-Aib-E-F-V-Q-W-L-I-K(1,3)-GGPSEGASLRHYYNWLTRQRY-NH2.C20DA-gGlu-gGlu-gGlu-gGlu(1,2)]
EC50 (hGLP1R; [1]): 0.29 nM
EC50 (hGLP1R; [2]): 14.2 nM
EC50 (hGIPR; [3]): 0.2 nM
EC50 (hGIPR; [6]): 1.83 nM
EC50 (hNPY2R; [4]): 13.8 nM

H-Y[Aib]EGTFTSDYSI[Aib]LEKQAQ[Aib]AFVEWLIK([AEEA-AEEA-γGlu-γGlu-γGlu-γGlu-C20 diacid])GGPSSPASLRHYYNWLTRQRY-NH2 [Compound 175, Y-Aib-E-G-T-F-T-S-D-Y-S-I-Aib-L-E-K-Q-A-Q-Aib-A-F-V-E-W-L-I-K(1,3)-GGPSSPASLRHYYNWLTRQRY-NH2.C20DA-gGlu-gGlu-gGlu-gGlu-OEG-OEG(1,2)]
EC50 (hGLP1R; [1]): 0.1 nM
EC50 (hGIPR; [3]): 0.29 nM
EC50 (hGIPR; [6]): 1.53 nM
EC50 (hNPY2R; [4]): 10.5 nM
EC50 (hNPY2R; [5]): 48.7 nM

H-Y[Aib]EGTFTSDYSI[Aib]LEKQAQ[Aib]AFVQWLIK([AEEA-AEEA-γGlu-γGlu-γGlu-γGlu-γGlu-C18 diacid])GGPSEPASLRHYYNWLTRQRY-NH2 [Compound 142, Y-Aib-E-G-T-F-T-S-D-Y-S-I-Aib-L-E-K-Q-A-Q-Aib-A-F-V-Q-W-L-I-K(1,3)-GGPSEPASLRHYYNWLTRQRY-NH2.C18DA-gGlu-gGlu-gGlu-gGlu-gGlu-OEG-OEG(1,2)]
EC50 (hGLP1R; [1]): 0.12 nM
EC50 (hGIPR; [3]): 0.28 nM
EC50 (hGIPR; [6]): 1.15 nM
EC50 (hNPY2R; [4]): 13 nM
EC50 (hNPY2R; [5]): 28.2 nM

H-Y[Aib]EGTFTSDYSI[Aib]LEKQAQ[Aib]AFVEWLIK([εLys-γGlu-γGlu-γGlu-γGlu-γGlu-γGlu-C20 diacid])GGPSSGASLRHY[Tle]NWLTRQRY-NH2 [Compound 133, Y-Aib-E-G-T-F-T-S-D-Y-S-I-Aib-L-E-K-Q-A-Q-Aib-A-F-V-E-W-L-I-K(1,3)-G-G-P-S-S-G-A-S-L-R-H-Y-Tle-N-W-L-T-R-Q-R-Y-NH2.C20DA-gGlu-gGlu-gGlu-gGlu-gGlu-gGlu-eLys(1,2)]
EC50 (hGLP1R; [1]): 0.16 nM
EC50 (hGIPR; [3]): 0.48 nM
EC50 (hNPY2R; [4]): 14.1 nM

H-Y[Aib]EGTFTSDYSI[Aib]LEKQAQ[Aib]AFVEWLIK([εLys-γGlu-γGlu-γGlu-γGlu-γGlu-γGlu-C20 diacid])GGPSEGQSLRHYYNWLTRQRY-NH2 [Compound 227, Y-Aib-E-G-T-F-T-S-D-Y-S-I-Aib-L-E-K-Q-A-Q-Aib-A-F-V-E-W-L-I-K(1,3)-GGPSEGQSLRHYYNWLTRQRY-NH2.C20DA-gGlu-gGlu-gGlu-gGlu-gGlu-gGlu-eLys(1,2)]
EC50 (hGLP1R; [1]): 0.13 nM
EC50 (hGLP1R; [2]): 3.07 nM
EC50 (hGIPR; [3]): 0.06 nM
EC50 (hGIPR; [6]): 1.23 nM
EC50 (hNPY2R; [4]): 10.2 nM

H-Y[Aib]EGTFTSDYSI[Aib]LEKQAQ[Aib]AFVEWLIK([εLys-γGlu-γGlu-γGlu-γGlu-γGlu-γGlu-C20 diacid])GGPSSGLSLRHYYNWLTRQRY-NH2 [Compound 107, Y-Aib-E-G-T-F-T-S-D-Y-S-I-Aib-L-E-K-Q-A-Q-Aib-A-F-V-E-W-L-I-K(1,3)-GGPSSGLSLRHYYNWLTRQRY-NH2.C20DA-gGlu-gGlu-gGlu-gGlu-gGlu-gGlu-eLys(1,2)]
EC50 (hGLP1R; [1]): 0.13 nM
EC50 (hGIPR; [3]): 0.27 nM
EC50 (hNPY2R; [4]): 16.7 nM
EC50 (hNPY2R; [5]): 58.5 nM

H-Y[Aib]EGTFTSDYSI[Aib]LEKQAQ[Aib]AFVEWLIK([εLys-γGlu-γGlu-γGlu-γGlu-γGlu-γGlu-C20 diacid])GGPSEYESLRHYYNWLTRQRY-NH2 [Compound 93, Y-Aib-E-G-T-F-T-S-D-Y-S-I-Aib-L-E-K-Q-A-Q-Aib-A-F-V-E-W-L-I-K(1,3)-GGPSEYESLRHYYNWLTRQRY-NH2.C20DA-gGlu-gGlu-gGlu-gGlu-gGlu-gGlu-eLys(1,2)]
EC50 (hGLP1R; [1]): 0.22 nM
EC50 (hGLP1R; [2]): 8.97 nM
EC50 (hGIPR; [3]): 0.14 nM
EC50 (hGIPR; [6]): 2.35 nM
EC50 (hNPY2R; [4]): 15.3 nM
EC50 (hNPY2R; [5]): 85.7 nM

H-Y[Aib]EGTFTSDYSI[Aib]LEKQAQ[Aib]AFVEWLIK([εLys-γGlu-γGlu-γGlu-γGlu-γGlu-γGlu-C20 diacid])GGPSYYVSLRHYYNWLTRQRY-NH2 [Compound 80, Y-Aib-E-G-T-F-T-S-D-Y-S-I-Aib-L-E-K-Q-A-Q-Aib-A-F-V-E-W-L-I-K(1,3)-GGPSYYVSLRHYYNWLTRQRY-NH2.C20DA-gGlu-gGlu-gGlu-gGlu-gGlu-gGlu-eLys(1,2)]
EC50 (hGLP1R; [1]): 1.6 nM
EC50 (hGIPR; [3]): 0.79 nM
EC50 (hNPY2R; [4]): 12.8 nM
EC50 (hNPY2R; [5]): 54.8 nM
